# Assays:
# [1] = system: HCT-116 colorectal carcinoma; experiment: LIVE/DEAD cell mediated cytotoxicity assay: PBMC killing of KRAS-mutated tumor cells; assay type: cell-based, human
# Protocol: The tumor target line HCT-116 colorectal carcinoma (American Type Culture Collection, Manassas, Va., ATCC No. CCL-247) was maintained in McCoy's 5A media supplemented with 10% fetal calf serum (Hyclone Laboratories, Inc., Logan, Utah).
# Cytotoxicity was measured with the LIVE/DEAD Cell Mediated Cytotoxicity Kit (Invitrogen, Carlsbad, Calif.) according to manufacturer's instructions. Briefly, the HCT-116 target cells were stained with 1:80 dilution of DiOC18 in Phosphate Buffered Saline (PBS, Mediatech Inc. Manassas, Va.) and incubated at 37° C. for 30 minutes. The cells were then washed twice in PBS and resuspended at 2×10^6 cells/mL in complete media containing 10% human serum.
# DiOC labeled target cells incubated with ERBITUX dilutions for 30 minutes at 37° C. In each well of a 96-well plate, 1.25×10^6 freshly isolated peripheral blood mononuclear cells (PBMC) along with IMPRIME-PGG dilution or 50 ng/ml IL-2 (R&D Systems, Minneapolis, Minn.) in of total volume of 100 μl media incubated at 37° C. for 30 minutes. 5×10^4 targets added to wells in 25 μl of media and assay incubated overnight at 37° C. Following incubation, target cell viability measured by staining with 125 μl of propidium iodide (PI) viability reagent diluted 1:5000 from stock solution provided in the assay kit. Cells incubated for 30 minutes at 37° C. before analysis on LSR II flow cytometer (BD Biosciences, San Jose, Calif.) to determine percentage of DiOC stained targets that intercalate the PI stain, indicating cell death.
# [2] = Physicochemical properties of purified soluble β-glucan
# Description: The soluble β-glucan has an average molecular weight between about 120,000 Da and about 205,000 Da and a molecular weight distribution (polydispersity) of not more than 2.5 as determined by HR-GPC with multiple angle light scattering (HR-GPC/MALS) and differential refractive index detection. Powder X-ray diffraction and magic-angle spinning NMR determined that the product consists of polymeric chains associated into triple helices. The soluble β-glucan is typically uncharged and therefore has no pKa.
# [3] = system: neutrophils and monocytes; conditions: cited from earlier work
# [4] = system: IL-1, TNF, and leukotrienes; conditions: cited from earlier work
substance,measurement,setting,value
poly-(1-6)-β-D-glucopyranosyl-(1-3)-β-D-glucopyranose [soluble β-glucan],ability of human PBMCs to kill KRAS-mutated tumor cells,"[1]; FIG. 2, flow cytometry data, in vitro",enhances the ability of human peripheral blood mononuclear cells (PBMCs) to kill KRAS-mutated tumor cells in vitro
same,ability of human PBMCs to kill KRAS-mutated tumor cells,"[1]; FIG. 3, in vitro, N=1, E:T=25:1",enhances the ability of human peripheral blood mononuclear cells (PBMCs) to kill KRAS-mutated tumor cells in vitro
same,antitumor activity in the presence of an EGF-r antagonist antibody,"[1]; FIG. 4, with ERBITUX, N=1, E:T=25:1",exhibits greater antitumor activity in the presence of an EGF-r antagonist antibody
same,pKa,[2],has no pKa
same,solubility in water,[2],soluble in water independent of pH
same,number of neutrophils and monocytes and their direct antitumor activity (phagocytosis and microbial killing),[3],increase the number of neutrophils and monocytes as well as their direct antitumor activity
same,"production of biochemical mediators (IL-1, TNF, leukotrienes)",[4],does not stimulate the production of biochemical mediators

# Source: patent publication US20120288495A1, “THERAPEUTIC COMPOSITIONS AND METHODS” (BIOTHERA, INC., priority 2009, published 2012)
